Test results as given in patent US5120322A, “Method and apparatus for treatment of fibrotic lesions” (Lathrotec, Inc., priority 1990, dated 1992).
Structures can show the parent of a compound that is named as a salt. Where two headings read alike, the source gives them in different places. One block for each compound: values may come before it.

What was measured:
collagen crosslinking = conditions: cited from earlier work
[1] = tested on: transection of the membranous urethra; assay: Example 8: urethra-trauma; assay type: in vivo, human males; conditions: coated silicone catheter; about six weeks
Excerpt: Following fractured hips, 5-10% of human males suffer transection of the membranous urethra as it leaves the bladder. This transection requires primary anastamosis with catheter stinting, often resulting in severe scar formation and secondary bladder outlet obstruction. Balloon dilation (pressure balloon) to create new wound tissue may be performed or direct surgical resection removes the narrowed scar tissue. After one week, the original bladder catheter is exchanged for a silicone catheter coated with either BAPN-F or another lathyrogenic agent such as D-Penicillamine, which inhibits cross-linking (strong bonding) between scar collagen fibers. The coated catheter is continuously maintained in place and changed once a week for about six weeks during the healing phase.

[2] = systemic administration, humans; cited from earlier work
tracheal injury = assay: Example 10: trachea; assay type: in vivo, human; conditions: silastic stint coated with 5.0 mM BAPN-F or D-Penicillamine; five or six weeks
Experimental: The patient suffering tracheal injury either due to a tracheostomy on an emergency basis or secondary to an automobile accident has primary anastomosis of the trachea resulting in a severe scar and impairment of the airway. The scar is excised and an endotracheal silastic stint coated with 5.0 mM BAPN-F or D-Penicillamine is put in place after one week and continuously maintained and changed on a weekly basis for five or six weeks during the healing phase. The lathyrogen is incorporated in the newly formed and healing wound where it allows the newly formed scar to be soft, plastic-like and conform to the diameter of the endotracheal stint.

[3] = tested on: full thickness dermal scar around the elbow; assay: Example 1: burn scar-elbow; assay type: in vivo, human; conditions: 5.0 mM BAPN-F and/or 20-25 mM D-penicillamine jelly or BAPN-F gauze (40 mg/100 cm^2); four to six weeks
Experimental: This restricts use. The hard scar is surgically "released" under general anesthesia by cutting in several places with or without a skin graft. The patient then has a lathyrogen applied and is placed in an elbow dynamic splint. This allows the elbow to be protected and at the same time to fully exercise the joint on a daily basis with or without the supervision of a physical therapist.
A lathyrogen jelly with 5.0 mM of BAPN-F and/or 20-25 mM D-penicillamine or a BAPN-F ]impregnated gauze (40 mg/100 cm^2 of gauze) is continuously applied to the wound during its healing phase beginning 4-8 days after surgical treatment and continued for four to six weeks in combination with physical therapy.

[4] = tested on: common bile duct stenosis; assay: Example 11: common bile duct stenosis; assay type: in vivo, human; conditions: BAPN-F coated silastic tube; six weeks
Excerpt: The scar is partially resected and after one week an original silastic stint is exchanged for an intraluminal silastic tube coated with BAPN-F with one arm of the tube protruding into the duodenum. The BAPN-F leaches off the silastic tube and is incorporated into the newly formed scar, which is soft because BAPN-F blocks cross-linking. The tube is continuously maintained in place and on a weekly basis the patient returns to the gastroenterology lab where, under direct manipulation, the tube is exchanged every week for six weeks. Once healing is complete the tube is removed and the new lumen of the common bile duct is preserved. The patient is no longer jaundiced and fluids from the liver can pass into the duodenum uninhibited.

urethral stenosis = assay: Example 7: urethra-infection; assay type: in vivo, human; conditions: BAPN-F bonded silicone catheter; about six weeks
Excerpt: The old scar in the urethra is opened under direct surgical resection. Immediately afterward a silicone urethral bladder catheter is inserted. After one week, this catheter is exchanged for one with the lathyrogenic agent BAPN-F bonded onto its surface. The coated catheter is continuously maintained in place and changed ever week for about six weeks during the healing phase. During the healing phase new scar tissue is laid down. However, its strength is beneficially altered by the lathyrogen BAPN-F which inhibits the bonding of one protein scar fiber to the next protein scar fiber allowing the wound to be molded in the shape of the intraluminal stint (urinary bladder catheter).

[5] = tested on: peritendinous, perineural adhesions; assay: Clinical effect of topically applied BAPN-F gauze; assay type: in vivo; conditions: 20-40 mg BAPN-F per 100 cm^2 of gauze, placed wet over the lesions
Excerpt: In order to obtain long shelf life of BAPN medications the drug should be kept dry and out of contact with water. For this reason administration of BAPN as an ointment, in gels or solutions is rather impractical, as the medication has to be freshly prepared every 6-8 weeks. 6-8 weeks is the time of detection of the first decomposition product of BAPN into ammonia, aminonitrile and CO2. This invention can overcome the above problem by incorporating a solution with the known concentration of BAPN into the dressing material (gauze, collagen sponge) with a known surface area. The dressing material may be soaked with a known volume of BAPN solution, frozen and freeze dried to complete dryness.

[6] = tested on: full thickness burn of the hand; assay: Example 5: burn scar-hand; assay type: in vivo, human; conditions: jelly containing 5 mM/L BAPN-F; four to six weeks
Experimental: A patient with a well healed full thickness burn of the hand has severe scarring of the fingers and hand in a claw-like form. The old scars are surgically released to create full mobility of the joints. The hand is placed in a "dynamic splint." The splint contains rubber band fixation to a rigid frame allowing the patient to exercise their fingers through a full range of motion. During the healing phase and on a daily basis, a jelly containing 5 mM/L of the lathyrogenic agent BAPN-F is continuously applied to the surgically "released" areas. The patient continues to exercise and use the dynamic splint during the healing phase over the next four to six weeks. […] The dynamic splint is removed. Healing is complete and range of motion restored.

burns in the esophagus = conditions: dogs, cited from earlier work
[7] = tested on: circumferential suture line scar of bladder and urethra; assay: Example 4: urethra-prostatic cancer; assay type: in vivo, human; conditions: silicone catheter coated with 5.0 mM BAPN-F; three weeks
Experimental: A patient with prostatic cancer detected with sonography and a candidate for total prostatectomy has the prostate removed and the cuff of the bladder sewn to the most proximal remaining portion of the urethra. This circumferential suture line often progresses to heavy scarring preventing complete emptying of the bladder. The scar is cut away under anesthesia and direct resectoscope vision and immediately stinted with a silicone catheter coated with 5.0 mM BAPN-F. The catheter remains in continuous direct contact with the new wound tissue during healing. The BAPN-F leaches from the surface of the catheter, thereby inhibiting hardening of the healing scar during the next three weeks. The catheter is changed on a weekly basis to renew the BAPN-F supply.

[8] = rabbit, in vivo
Experimental: This example illustrates the efficacy of collagen- resorcinol-glutaraldehyde polymer as a BAPN-F delivery system. One hundred parts of medical grade purity collagen, prepared by a known procedure, is mixed with three hundred parts of water and heated until collagen dissolves to form a viscous solution. […] One milliliter of this mixture per kilogram of rabbit body weight was injected under the skin, after quick mixing of the appropriate volume of the mixture with 1/10 of its volume of 3 percent glutaraldehyde in a 5 ml plastic syringe. […] The rate of the release of the BAPN-F from the polymer was studied by direct measuring of the amount of BAPN-F in the blood, collected from the ear vein of the rabbit at time intervals shown in Table 1.
For comparison, the same amount of BAPN-F was injected under the skin of control rabbits as water solution.

[9] = tested on: skin and other surrounding tissues; conditions: cited from earlier work
[10] = Decomposition of BAPN in ointment, gels or solutions; assay type: physicochemical; conditions: decomposition into ammonia, aminonitrile and CO2
[11] = tested on: scarred and blocked fallopian tubes; assay: Example 2: fallopian tube stenosis-infertility; assay type: in vivo, human; conditions: BAPN-coated silastic tube stint; four to six week healing phase
Excerpt: A patient having scarred and blocked fallopian tubes as a result of infection has incisions made in the scar tissue and a BAPN- coated silastic tube stint placed in the fallopian tube after one week and left in place during the healing phase. The stint is continuously maintained in contact with the fresh wound and is changed two or three times during the four to six week healing phase as the lathyrogenic agent leaches off the surface of the silastic stint and is incorporated into the newly healing scar. The newly formed scar takes the shape of the stint.

Compound: CC(C)(S)[C@@H](N)C(=O)O [D-Penicillamine]
- inhibition of crosslinking (collagen crosslinking): crosslinking can be inhibited
- opening after catheter removal [1]: a normal sized opening is present
- systemic tolerance (therapeutic vs. toxic concentrations) [2]: therapeutic and toxic concentrations are so close that they cannot be systemically tolerated by humans
- scarring and airway dynamics (tracheal injury): no further scarring takes place, the medication and stint is discontinued and the patient returns to normal airway dynamics
- range of motion at the elbow [3]: the patient resumes full range of motion at the elbow

Compound: N#CCCN [BAPN-F, Beta-aminopropionitrile fumarate]
- opening after catheter removal [1]: a normal sized opening is present
- lumen of the common bile duct, jaundice [4]: the new lumen of the common bile duct is preserved. The patient is no longer jaundiced
- scarring and airway dynamics (tracheal injury): no further scarring takes place, the medication and stint is discontinued and the patient returns to normal airway dynamics
- urination after stint removal (urethral stenosis): normal unobstructed urination can proceed
- clinical effect on fibrotic adhesions [5]: evident clinical effect of a topically applied gauze-placed wet over the lesions, such as peritendinous, perineural adhesions with prevention or reduction of the incidence of fibrotic adhesions
- range of hand motion [6]: full range of motion without further restriction of hand motion
- ingestion of food during treatment (burns in the esophagus; esophageal burns): severe problems in the ingestion of food
- toxicity (burns in the esophagus; systemically introduced): serious toxicity problems
- range of motion at the elbow [3]: the patient resumes full range of motion at the elbow
- scarring of bladder-urethra suture line [7]: no new scarring takes place

- Plasma Level (BAPN-F) ([8]; 120 min): 3.2
- Plasma Level (BAPN-F) ([8]; 240 min): 2.9
- Plasma Level (BAPN-F) ([8]; 360 min): 2.1
- Plasma Level (BAPN-F) ([8]; 600 min): 1.0
- Plasma Level (BAPN-F) ([8]; 960 min): 0.1
- Plasma Level (BAPN-F) ([8]; 2880 min): 0
- Plasma Level (BAPN-F) ([8]; 4320 min): 0
- Plasma Level (BAPN-F) ([8]; 5760 min): 0
- Plasma Level (BAPN-F) ([8]; 10080 min): 0
Compound: Water
- time to maximum in serum [8]: reaches a maximum in serum within two hours after injection

Compound: N#CCCN [BAPN, Beta-aminopropionitrile]
- inhibition of crosslinking (collagen crosslinking): crosslinking can be inhibited
- penetration of skin and other surrounding tissues (thickness) [9]: a few millimeters in thickness
- systemic tolerance (therapeutic vs. toxic concentrations) [2]: therapeutic and toxic concentrations are so close that they cannot be systemically tolerated by humans
- time of detection of the first decomposition product [10]: 6-8 weeks
- opening of the fallopian tube [11]: the opening of the fallopian tube is preserved and egg and sperm transport can now cross the previously blocked fallopian tube
